molecular target: wild-type human cardiac sodium channel, hNav1.5 (Homo sapiens, UniProt Q14524); experiment: Late INa screening assay (automated whole cell patch clamp, PatchXpress); type: cell-based; conditions: not given
Outline: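 Late sodium current through wild-type human hNav1.5 stably expressed in HEK293 cells (no beta subunits) was recorded by automated whole-cell patch clamp on a PatchXpress 7000A at 24-27° C. Late INa was induced with 10 μM Tefluthrin or 50 nM ATX II. Cells were stepped from −120 mV to −20 mV for 250 ms at 0.1 Hz, and percent block was normalized to current in Na-free extracellular solution.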

Sequence of wild-type human cardiac sodium channel, hNav1.5 (Q14524 whole entry): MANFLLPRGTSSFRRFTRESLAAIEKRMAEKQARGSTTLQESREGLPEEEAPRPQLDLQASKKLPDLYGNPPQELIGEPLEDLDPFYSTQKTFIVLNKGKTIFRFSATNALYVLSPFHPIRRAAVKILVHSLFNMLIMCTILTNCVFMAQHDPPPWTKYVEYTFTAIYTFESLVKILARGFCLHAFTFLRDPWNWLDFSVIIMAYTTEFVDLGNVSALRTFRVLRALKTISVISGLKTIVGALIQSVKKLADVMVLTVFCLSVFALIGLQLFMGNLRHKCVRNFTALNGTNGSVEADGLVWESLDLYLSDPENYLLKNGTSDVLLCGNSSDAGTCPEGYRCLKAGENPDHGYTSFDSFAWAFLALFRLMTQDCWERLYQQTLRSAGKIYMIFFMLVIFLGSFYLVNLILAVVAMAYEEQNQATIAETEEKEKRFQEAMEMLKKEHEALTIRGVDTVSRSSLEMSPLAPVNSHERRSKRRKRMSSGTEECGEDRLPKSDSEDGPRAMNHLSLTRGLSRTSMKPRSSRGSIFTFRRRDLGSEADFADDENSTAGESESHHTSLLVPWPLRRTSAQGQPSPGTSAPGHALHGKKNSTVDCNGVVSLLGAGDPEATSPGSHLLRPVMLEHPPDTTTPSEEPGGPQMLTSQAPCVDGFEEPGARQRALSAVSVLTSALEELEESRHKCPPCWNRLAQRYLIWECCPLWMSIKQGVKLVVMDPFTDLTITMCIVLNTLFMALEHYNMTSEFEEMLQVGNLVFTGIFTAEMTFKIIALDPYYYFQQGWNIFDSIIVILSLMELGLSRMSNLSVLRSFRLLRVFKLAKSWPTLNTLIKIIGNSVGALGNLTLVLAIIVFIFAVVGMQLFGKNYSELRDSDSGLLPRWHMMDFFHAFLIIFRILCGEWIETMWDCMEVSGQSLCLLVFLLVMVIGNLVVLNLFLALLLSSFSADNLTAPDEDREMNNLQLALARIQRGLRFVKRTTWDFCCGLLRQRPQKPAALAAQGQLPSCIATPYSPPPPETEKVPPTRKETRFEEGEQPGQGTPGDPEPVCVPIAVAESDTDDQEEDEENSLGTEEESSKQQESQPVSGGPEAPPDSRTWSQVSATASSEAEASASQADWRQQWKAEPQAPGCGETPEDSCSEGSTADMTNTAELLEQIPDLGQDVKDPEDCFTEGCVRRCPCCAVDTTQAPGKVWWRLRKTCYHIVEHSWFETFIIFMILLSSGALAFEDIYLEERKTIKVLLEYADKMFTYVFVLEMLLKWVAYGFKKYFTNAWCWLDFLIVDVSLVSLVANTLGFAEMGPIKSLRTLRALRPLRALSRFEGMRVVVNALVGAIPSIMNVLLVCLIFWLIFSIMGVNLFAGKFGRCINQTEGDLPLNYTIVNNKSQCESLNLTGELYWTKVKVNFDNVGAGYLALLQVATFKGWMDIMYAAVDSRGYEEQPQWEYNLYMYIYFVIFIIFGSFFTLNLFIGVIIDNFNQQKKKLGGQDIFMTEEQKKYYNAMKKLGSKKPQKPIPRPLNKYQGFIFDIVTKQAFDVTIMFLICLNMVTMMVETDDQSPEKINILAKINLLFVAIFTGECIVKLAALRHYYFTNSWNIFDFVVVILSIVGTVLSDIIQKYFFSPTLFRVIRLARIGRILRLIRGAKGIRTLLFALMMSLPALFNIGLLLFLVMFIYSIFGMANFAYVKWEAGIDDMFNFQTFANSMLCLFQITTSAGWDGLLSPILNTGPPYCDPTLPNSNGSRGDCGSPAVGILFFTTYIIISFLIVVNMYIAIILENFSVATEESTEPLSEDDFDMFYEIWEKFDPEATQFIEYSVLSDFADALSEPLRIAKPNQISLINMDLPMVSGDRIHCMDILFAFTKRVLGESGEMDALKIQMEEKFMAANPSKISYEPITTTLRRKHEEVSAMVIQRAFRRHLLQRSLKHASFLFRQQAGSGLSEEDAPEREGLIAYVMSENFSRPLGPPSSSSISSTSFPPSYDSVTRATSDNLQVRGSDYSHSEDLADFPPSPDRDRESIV

SMILES	LateINa_1 uM (percent block of late INa) [%]
FC(F)(F)Oc1ccc(-c2ccc3nnc(Oc4cccc(C(F)(F)F)c4)n3c2)cc1 [BHN-258]	80.1084

same assay, conditions: compound at 1 μM; HEK293 cells expressing hNav1.5; late INa generated with 10 μM Tefluthrin (or 50 nM ATX II); read-out: LateINa_1 uM (percent block of late INa)

SMILES	inhibition at 1 µM [%]
COCC(F)(F)c1nnc2ccc(-c3ccc(Oc4ccc(F)cc4)cc3)cn12 [BHN-138, 3-(1,1-difluoro-2-methoxyethyl)-6-[4-(4-fluorophenoxy)phenyl][1,2,4]triazolo[4,3-a]pyridine]	42.8
Nc1cc(-c2ccc3nnc(C(F)(F)F)n3c2)ccc1OC(F)(F)F [BHN-134, 2-(trifluoromethoxy)-5-[3-(trifluoromethyl)[1,2,4]triazolo[4,3-a]pyridin-6-yl]aniline]	27.8
OCC(F)(F)c1nnc2ccc(-c3ccc(Oc4ccccc4)cc3)cn12 [BHN-111, 2,2-difluoro-2-[6-(4-phenoxyphenyl)[1,2,4]triazolo[4,3-a]pyridin-3-yl]ethanol]	29
CN(C)CCOCC(F)(F)c1nnc2ccc(-c3ccc(OC(F)(F)F)cc3)cn12 [BHN-150, 2-(2,2-difluoro-2-{6-[4-(trifluoromethoxy)phenyl][1,2,4]triazolo[4,3-a]pyridin-3-yl}ethoxy)-N,N-dimethylethanamine]	15.6
FC(F)(F)Oc1ccc(-c2ccc3nnc(C(F)(F)OCc4cn(-c5ccccc5)nc4C(F)(F)F)n3c2)cc1 [BHN-314, 3-(difluoro{[1-phenyl-3-(trifluoromethyl)-1H-pyrazol-4-yl]methoxy}methyl)-6-[4-(trifluoromethoxy)phenyl][1,2,4]triazolo[4,3-a]pyridine]	24.2
CC(=O)Nc1cc(OC(F)(F)F)ccc1-c1ccc2nnc(-c3ccc(OC(F)(F)F)cc3)n2c1 [BHN-116, N-[5-(trifluoromethoxy)-2-{3-[4-(trifluoromethoxy)phenyl][1,2,4]triazolo[4,3-a]pyridin-6-yl}phenyl]acetamide]	16.4
CNC(=O)c1cccc(-c2nnc3ccc(-c4ccc(OC(F)(F)F)cc4)cn23)c1 [BHN-99, N-methyl-3-{6-[4-(trifluoromethoxy)phenyl][1,2,4]triazolo[4,3-a]pyridin-3-yl}benzamide]	19.6
O=[N+]([O-])c1ccc(-c2ccc3nnc(C(F)(F)F)n3c2)c(Cl)c1 [BHN-292, 6-(2-chloro-4-nitrophenyl)-3-(trifluoromethyl)[1,2,4]triazolo[4,3-a]pyridine]	26
CC(C)(O)COCC(F)(F)c1nnc2ccc(-c3ccc(OC(F)(F)F)cc3)cn12 [BHN-205, 1-(2,2-difluoro-2-{6-[4-(trifluoromethoxy)phenyl][1,2,4]triazolo[4,3-a]pyridin-3-yl}ethoxy)-2-methylpropan-2-ol]	25.2
FC(F)c1nnc2cnc(-c3ccc(OC(F)(F)F)cc3)cn12 [BHN-23, 3-(difluoromethyl)-6-[4-(trifluoromethoxy)phenyl][1,2,4]triazolo[4,3-a]pyrazine]	53.5
FC(F)(F)c1ncc2ccc(-c3nc4ccccc4o3)cn12 [BHN-196, 2-[3-(trifluoromethyl)imidazo[1,5-a]pyridin-6-yl]-1,3-benzoxazole]	26.8
COc1ccc(-c2ccc3cnc(C(F)(F)F)n3c2)cc1 [BHN-30, 6-(4-methoxyphenyl)-3-(trifluoromethyl)imidazo[1,5-a]pyridine]	24.6
FC(F)(F)Oc1ccc(-c2ccc3nnc(C(F)(F)OCc4ccc5c(c4)OC(F)(F)O5)n3c2)cc1 [BHN-225, 3-{[(2,2-difluoro-1,3-benzodioxol-5-yl)methoxy](difluoro)methyl}-6-[4-(trifluoromethoxy)phenyl][1,2,4]triazolo[4,3-a]pyridine]	63
FC(F)(F)Oc1ccc(-c2ccc3nnc(C(F)(F)F)n3c2)c(Br)c1 [BHN-124, 6-[2-bromo-4-(trifluoromethoxy)phenyl]-3-(trifluoromethyl)[1,2,4]triazolo[4,3-a]pyridine]	82
Fc1cc(-c2ccc3nnc(C(F)(F)F)n3c2)ccc1OC(F)(F)F [BHN-146, 6-[3-fluoro-4-(trifluoromethoxy)phenyl]-3-(trifluoromethyl)[1,2,4]triazolo[4,3-a]pyridine]	58.2
FC(F)(F)Oc1ccc(-c2ccc3nnc(COCc4ccc(C(F)(F)F)cc4)n3c2)cc1 [BHN-226, 6-[4-(trifluoromethoxy)phenyl]-3-({[4-(trifluoromethyl)benzyl]oxy}methyl)[1,2,4]triazolo[4,3-a]pyridine]	59.3
FC(F)(F)Oc1ccc(-c2ccc3nnc(C(F)(F)OCc4coc(-c5ccc(C(F)(F)F)cc5)n4)n3c2)cc1 [BHN-288, 3-[difluoro({2-[4-(trifluoromethyl)phenyl]-1,3-oxazol-4-yl}methoxy)methyl]-6-[4-(trifluoromethoxy)phenyl][1,2,4]triazolo[4,3-a]pyridine]	39.2
CC1(c2ccc(-c3ccc4nnc(C(F)(F)F)n4c3)cc2)OCCO1 [BHN-162, 6-[4-(2-methyl-1,3-dioxolan-2-yl)phenyl]-3-(trifluoromethyl)[1,2,4]triazolo[4,3-a]pyridine]	29.9
COc1cc(C(F)(F)F)ccc1-c1ccc2nnc(C(F)(F)F)n2c1 [BHN-105, 6-[2-methoxy-4-(trifluoromethyl)phenyl]-3-(trifluoromethyl)[1,2,4]triazolo[4,3-a]pyridine]	49.3
Cn1ccc(COC(F)(F)c2nnc3ccc(-c4ccc(OC(F)(F)F)cc4)cn23)n1 [BHN-301, 3-{difluoro[(1-methyl-1H-pyrazol-3-yl)methoxy]methyl}-6-[4-(trifluoromethoxy)phenyl][1,2,4]triazolo[4,3-a]pyridine]	29.9
FC(F)(F)Oc1ccc(-c2ccc3nnc(COCc4ccccc4)n3c2)cc1 [BHN-127, 3-[(benzyloxy)methyl]-6-[4-(trifluoromethoxy)phenyl][1,2,4]triazolo[4,3-a]pyridine]	93.2
FC(F)c1nnc2ccc(-c3ccc(Oc4ccccc4)cc3)nn12 [BHN-13, 3-(difluoromethyl)-6-(4-phenoxyphenyl)[1,2,4]triazolo[4,3-b]pyridazine]	44.8
COc1cc(OC(F)(F)F)ccc1-c1ccc2nnc(C(F)(F)F)n2c1 [BHN-152, 6-[2-methoxy-4-(trifluoromethoxy)phenyl]-3-(trifluoromethyl)[1,2,4]triazolo[4,3-a]pyridine]	71.8
FC(F)(F)c1nnc2ccc(-c3ccc(Nc4ccccc4)cc3)cn12 [BHN-114, N-phenyl-4-[3-(trifluoromethyl)[1,2,4]triazolo[4,3-a]pyridin-6-yl]aniline]	37.4

same assay, conditions: compound at 10 μM; HEK293 cells expressing hNav1.5; late INa generated with 10 μM Tefluthrin (or 50 nM ATX II); read-out: LateINa_10 uM (percent block of late INa)

SMILES	inhibition at 10 µM [%]
FC(F)(F)c1ccc(-c2ccc3nnc(C(F)(F)F)n3c2)cn1 [BHN-91, 3-(trifluoromethyl)-6-[6-(trifluoromethyl)pyridin-3-yl][1,2,4]triazolo[4,3-a]pyridine]	46.7
Cc1nnc2ccc(-c3ccc(Oc4ccccc4)cc3)cn12 [BHN-333, 3-methyl-6-(4-phenoxyphenyl)[1,2,4]triazolo[4,3-a]pyridine]	61.6
FC(F)(F)c1nnc2ccc(-c3cnc(C4CC4)nc3)cn12 [BHN-89, 6-(2-cyclopropylpyrimidin-5-yl)-3-(trifluoromethyl)[1,2,4]triazolo[4,3-a]pyridine]	20.5
FC(F)c1nnc2cnc(-c3ccc(OC(F)(F)F)cc3)cn12 [BHN-23, 3-(difluoromethyl)-6-[4-(trifluoromethoxy)phenyl][1,2,4]triazolo[4,3-a]pyrazine]	74.7
COc1ccc(-c2ccc3cnc(C(F)(F)F)n3c2)cc1 [BHN-30, 6-(4-methoxyphenyl)-3-(trifluoromethyl)imidazo[1,5-a]pyridine]	77.3
FC(F)c1nnc2ccc(-c3ccc(Oc4ccccc4)cc3)nn12 [BHN-13, 3-(difluoromethyl)-6-(4-phenoxyphenyl)[1,2,4]triazolo[4,3-b]pyridazine]	87.1
FC(F)(F)Oc1ccc(-c2ccc3nnc(C(F)(F)F)n3c2)cc1 [BHN-335, 6-[4-(trifluoromethoxy)phenyl]-3-(trifluoromethyl)[1,2,4]triazolo[4,3-a]pyridine]	87.7

— patent US8952034B2, “Fused heterocyclic compounds as ion channel modulators” (Gilead Sciences, Inc., priority 2009, dated 2015)
